Data: ChEMBL document CHEMBL4765381, “Neuropeptide FF and Its Receptors: Therapeutic Applications and Ligand Development” (J Med Chem, 2020)
Square brackets hold non-standard residues; d marks the D form. Peptide text beside a SMILES is read from it. * marks the point of attachment. Desaminotyrosyl = O=C(CCc1ccc(O)cc1)*; Tic = O=C(O)[C@@H]1Cc2ccccc2CN1

How the values were obtained:
[1] = target: T1, Neuropeptide FF receptor 2 (Homo sapiens, UniProt Q9Y5X5); assay: Displacement of TAMRA-NPFF from human NPFFR2 expressed in CHO-K1 cells preincubated for 15 mins followed by GTPgammaS addition and measured after 15 to 120 mins by competitive binding assay; type: cell-based
T1 sequence (Q9Y5X5 whole entry): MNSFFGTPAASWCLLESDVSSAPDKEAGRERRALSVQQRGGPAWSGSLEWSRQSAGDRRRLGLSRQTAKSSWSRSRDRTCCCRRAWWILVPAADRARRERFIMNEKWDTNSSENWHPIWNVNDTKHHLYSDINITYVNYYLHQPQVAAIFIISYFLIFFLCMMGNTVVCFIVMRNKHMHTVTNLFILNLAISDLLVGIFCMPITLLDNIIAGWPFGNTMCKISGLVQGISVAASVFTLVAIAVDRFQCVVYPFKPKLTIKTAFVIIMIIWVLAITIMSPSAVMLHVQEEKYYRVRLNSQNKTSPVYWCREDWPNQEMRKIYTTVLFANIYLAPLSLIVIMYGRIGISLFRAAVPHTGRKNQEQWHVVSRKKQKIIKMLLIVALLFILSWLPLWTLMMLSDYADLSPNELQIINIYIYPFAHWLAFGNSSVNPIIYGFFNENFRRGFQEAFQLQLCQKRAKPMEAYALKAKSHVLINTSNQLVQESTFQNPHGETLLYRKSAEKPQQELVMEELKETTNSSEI

[2] = target: T1, Neuropeptide FF receptor 2; assay: Agonist activity at human NPFFR2 expressed in CHO cells assessed as inhibition of forskolin-induced intracellular cAMP production incubated for 5 hrs by firefly/renilla luciferase reporter assay; type: functional, cell-based
[3] = target: Neuropeptide FF receptor 1 (Rattus norvegicus, UniProt Q9EP86); assay: Displacement of [125I](Tyr)NPF from rat NPFFR1 expressed in rat PC12 cells incubated for 1 hr; type: cell-based, PC-12
Sequence of Neuropeptide FF receptor 1 (Rattus norvegicus, UniProt Q9EP86) (Q9EP86 whole entry): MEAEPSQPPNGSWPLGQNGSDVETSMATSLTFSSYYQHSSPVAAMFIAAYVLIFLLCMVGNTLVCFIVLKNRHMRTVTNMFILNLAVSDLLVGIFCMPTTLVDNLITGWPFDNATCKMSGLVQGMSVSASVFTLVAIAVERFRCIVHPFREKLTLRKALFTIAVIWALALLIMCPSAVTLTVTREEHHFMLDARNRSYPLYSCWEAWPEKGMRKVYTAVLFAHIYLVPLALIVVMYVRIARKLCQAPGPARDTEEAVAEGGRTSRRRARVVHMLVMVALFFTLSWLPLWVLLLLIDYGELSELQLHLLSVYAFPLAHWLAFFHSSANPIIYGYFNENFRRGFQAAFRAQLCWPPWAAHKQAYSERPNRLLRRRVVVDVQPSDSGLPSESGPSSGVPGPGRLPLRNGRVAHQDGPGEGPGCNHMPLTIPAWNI

[4] = target: T1, Neuropeptide FF receptor 2; assay: Agonist activity at human NPFFR2 expressed in CHO cells assessed as stimulation of [35S]-GTPgammaS binding preincubated for 30 mins followed by [35S]-GTPgammaS stimulation and measured after 30 mins by scintillation counting method; type: functional, cell-based
[5] = target: T2, Neuropeptide FF receptor 1 (Homo sapiens, UniProt Q9GZQ6); assay: Agonist activity at NPFFR1 (unknown origin) expressed in mouse NIH3T3 cells by receptor selection and amplification technology assay relative to control; type: cell-based
T2 sequence (Q9GZQ6 whole entry): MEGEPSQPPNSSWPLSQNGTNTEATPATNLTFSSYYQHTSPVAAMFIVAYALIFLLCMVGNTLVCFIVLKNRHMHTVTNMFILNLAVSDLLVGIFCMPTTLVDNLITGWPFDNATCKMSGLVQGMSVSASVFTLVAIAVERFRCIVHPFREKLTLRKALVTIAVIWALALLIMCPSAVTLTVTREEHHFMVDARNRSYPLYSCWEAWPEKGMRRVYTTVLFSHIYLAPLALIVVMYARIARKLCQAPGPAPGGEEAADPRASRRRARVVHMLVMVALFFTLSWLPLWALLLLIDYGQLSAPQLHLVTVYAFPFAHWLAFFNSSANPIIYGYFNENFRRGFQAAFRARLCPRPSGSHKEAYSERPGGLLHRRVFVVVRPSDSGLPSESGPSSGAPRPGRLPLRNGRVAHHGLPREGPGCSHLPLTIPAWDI

[6] = target: T1, Neuropeptide FF receptor 2; assay: Agonist activity at NPFFR2 (unknown origin) expressed in mouse NIH3T3 cells by receptor selection and amplification technology assay relative to control; type: cell-based; details: filed as agonist
[7] = target: T2, Neuropeptide FF receptor 1; assay: Agonist activity at NPFFR1 (unknown origin) expressed in mouse NIH3T3 cells by receptor selection and amplification technology assay; type: cell-based
[8] = target: T2, Neuropeptide FF receptor 1; assay: Agonist activity at NPFFR1 (unknown origin) expressed in HEK293T cells harboring EP2 incubated for 15 mins by cAMP assay relative to control; type: functional, cell-based; details: filed as agonist
[9] = target: T2, Neuropeptide FF receptor 1; assay: Agonist activity at NPFFR1 (unknown origin) expressed in HEK293T cells harboring EP2 incubated for 15 mins by cAMP assay; type: functional, cell-based
[10] = target: T1, Neuropeptide FF receptor 2; assay: Agonist activity at NPFFR2 (unknown origin) expressed in HEK293T cells harboring EP2 incubated for 15 mins by cAMP assay relative to control; type: functional, cell-based; details: filed as agonist
[11] = Displacement of [ […]]Y8Famide from NPFFR in rat spinal cord membranes; type: cell membranes, Membrane
[12] = Binding affinity to NPFFR in rat spinal cord; type: tissue-based
[13] = Displacement of [125I]-1DMe from NPFF receptor in Sprague-Dawley rat dorsal horn of spinal cord incubated for 150 mins by autoradiography; type: tissue-based
[14] = target: T3, Prolactin-releasing peptide receptor (Homo sapiens, UniProt P49683); assay: Displacement of [3H]-PrRP-20 from human PrRP receptor expressed in CHO cell membrane by TopCount scintillation counter method; type: cell membranes
T3 sequence (P49683 whole entry): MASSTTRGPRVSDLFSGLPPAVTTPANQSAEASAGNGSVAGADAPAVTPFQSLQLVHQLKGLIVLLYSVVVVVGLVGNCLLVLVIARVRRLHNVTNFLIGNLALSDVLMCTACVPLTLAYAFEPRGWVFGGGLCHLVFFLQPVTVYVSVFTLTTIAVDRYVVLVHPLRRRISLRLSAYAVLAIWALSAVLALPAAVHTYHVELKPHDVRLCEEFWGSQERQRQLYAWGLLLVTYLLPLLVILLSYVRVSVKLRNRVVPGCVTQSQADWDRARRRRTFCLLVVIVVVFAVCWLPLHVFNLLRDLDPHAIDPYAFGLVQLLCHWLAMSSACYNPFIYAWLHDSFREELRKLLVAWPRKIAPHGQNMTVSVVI

[15] = target: KiSS-1 receptor (Homo sapiens, UniProt Q969F8); assay: Displacement of [125I]-Kp-10 from human KISS1R expressed in CHO cell membrane by TopCount scintillation counter method; type: cell membranes
Sequence of KiSS-1 receptor (Q969F8 whole entry): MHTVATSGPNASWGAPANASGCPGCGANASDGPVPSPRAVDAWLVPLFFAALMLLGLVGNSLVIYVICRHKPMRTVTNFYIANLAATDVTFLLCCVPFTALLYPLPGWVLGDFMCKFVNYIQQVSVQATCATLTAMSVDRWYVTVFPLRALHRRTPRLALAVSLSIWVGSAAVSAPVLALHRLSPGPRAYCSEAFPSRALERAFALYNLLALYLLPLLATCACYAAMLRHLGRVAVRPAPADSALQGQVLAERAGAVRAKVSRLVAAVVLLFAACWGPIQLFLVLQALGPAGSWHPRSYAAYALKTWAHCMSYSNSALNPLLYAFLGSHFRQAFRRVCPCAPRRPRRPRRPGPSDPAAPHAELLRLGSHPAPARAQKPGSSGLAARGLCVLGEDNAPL

[16] = target: T4, Pyroglutamylated RF-amide peptide receptor (Homo sapiens, UniProt Q96P65); assay: Displacement of [125I]-43RFa from human QRFP receptor expressed in CHO cell membrane by TopCount scintillation counter method; type: cell membranes
T4 sequence (Q96P65 whole entry): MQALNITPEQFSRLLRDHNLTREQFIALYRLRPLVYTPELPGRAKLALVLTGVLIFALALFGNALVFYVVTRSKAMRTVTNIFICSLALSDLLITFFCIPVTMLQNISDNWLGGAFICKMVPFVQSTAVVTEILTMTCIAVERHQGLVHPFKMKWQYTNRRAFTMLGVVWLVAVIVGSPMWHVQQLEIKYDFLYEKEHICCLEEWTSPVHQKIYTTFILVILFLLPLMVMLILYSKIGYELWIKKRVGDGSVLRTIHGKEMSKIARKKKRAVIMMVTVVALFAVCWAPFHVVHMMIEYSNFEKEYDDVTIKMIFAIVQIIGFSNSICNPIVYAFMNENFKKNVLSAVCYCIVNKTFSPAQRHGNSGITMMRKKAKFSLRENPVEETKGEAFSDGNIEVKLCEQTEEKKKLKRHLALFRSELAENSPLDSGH

[17] = target: T2, Neuropeptide FF receptor 1; assay: Displacement of [125I]YVP from human NPFFR1 expressed in CHO cells; type: cell-based
[18] = target: T1, Neuropeptide FF receptor 2; assay: Displacement of [125I]Tyr-NPFF from human NPFFR2 expressed in green monkey Cos-1 cells; type: cell-based
[19] = target: T1, Neuropeptide FF receptor 2; details: COS-1, filed as antagonist, dose 7.5 µM, time 30.0 min

COc1cc2c(c(OC)c1OC)-c1c(cc(C)c(C)c1OC)[C@@H](C(=O)Oc1ccccc1)[C@@](C)(O)[C@@H](C)C2
Ki [1]: 1.42 nM | EC50 [2]: 1470 nM

N=C(N)NCCC[C@H](NC(=O)[C@H](Cc1ccccc1)NC(=O)[C@@H]1CCCN1)C(=O)N1Cc2ccccc2C[C@H]1C(N)=O (H-PFR[Tic]-NH2)
IC50 [3]: 0.1 nM | Ki [3]: 101 nM | EC50 [4]: 2400 nM

N=C(N)N/N=C/c1ccc(Cl)c(C(F)(F)F)c1
Efficacy [5]: 30.6% | Efficacy [6]: 108% | EC50 [7]: 3.16 µM | Efficacy [8]: 42% | EC50 [9]: 3.16 µM | Efficacy [10]: 89%

CN(C)c1cccc2c(S(=O)(=O)N3CCC[C@H]3C(=O)N[C@@H](CCC(N)=O)C(=O)N[C@@H](CCCNC(=N)N)C(N)=O)cccc12 [DANSYLPQRAMIDE]
Ki [11]: 13 µM

CC(C)C[C@H](NC(=O)[C@H](Cc1ccccc1)NC(=O)CCc1ccc(O)cc1)C(=O)N[C@@H](Cc1ccccc1)C(=O)N[C@@H](CCC(N)=O)C(=O)N1CCC[C@H]1C(=O)N[C@@H](CCC(N)=O)C(=O)N[C@@H](CCCN=C(N)N)C(N)=O (Desaminotyrosyl-FLFQPQR-NH2)
Ki [12]: 0.2 nM

NC(=O)CC[C@H](NC(=O)[C@@H]1CCCN1)C(=O)N[C@@H](CCCN=C(N)N)C(=O)N[C@@H](Cc1ccccc1)C(N)=O
Ki [13]: 15.5 nM

NC(N)=N/N=C/c1ccc(Cl)c(Cl)c1
Ki [14]: > 5 µM | Ki [15]: > 5 µM | Ki [16]: > 5 µM

NC(N)=NCCC[C@H](NC(=O)C(c1ccccc1)c1ccccc1)C(=O)NCc1ccc(O)cc1
Ki [17]: 12 nM | Ki [18]: 461 nM

COc1cc2c(c(OC)c1OC)-c1c(cc3c(c1OC)CC3)[C@@H](C(=O)Oc1ccccc1)[C@@](C)(O)[C@@H](C)C2
Ki [1]: 2.17 nM | EC50 [2]: 2220 nM

N=C(N)NCCC[C@H](NC(=O)C12CC3CC(CC(C3)C1)C2)C(=O)N[C@@H](Cc1ccccc1)C(N)=O
Ke [19]: 45 nM
